Laboratory results as given in paper PMC12801355, “Peptide Amphiphiles Hitchhike on Endogenous Biomolecules for Enhanced Cancer Imaging and Therapy” (Advanced Materials (Deerfield Beach, Fla.), 2025).
Blank lines part the entries; values can stand above or below the compound they belong to. Where a SMILES comes first, the peptide text is derived from it. Where no end group is shown, it is not given here. [ ]: non-standard residue; d: D form. The star is where a group is joined. Dolaproine = CO[C@@H]([C@@H]1CCCN1)[C@@H](C)C(=O)O; Dil = CC[C@H](C)[C@H](NC)[C@@H](CC(=O)O)OC; Palmitoyl = CCCCCCCCCCCCCCCC(=O)*; X1 = C[C@@H](N*)[C@@H](O)c1ccccc1; NMeV = CN[C@H](C(=O)O)C(C)C

How the values were obtained:
[1] = PA fluorescence in liver homogenates; type: in vitro ADME; details: ICG conjugated, 0.1 to 10 µM spiked into mouse liver homogenate, IVIS
Protocol: Liver samples (6.2 g total weight) collected from healthy BALB/cJ mice were placed in a gentleMACS M Tube containing 2 mL of PBS. The M Tube was fitted with a 600 µm mesh strainer, and homogenization was performed using a gentleMACS Dissociator by running a one‐minute program at 1260 rotations per round (rpr) for five cycles. ICG conjugated SA‐E and SA‐K were then spiked into the liver homogenates in a 96‐well plate at final concentrations of 0, 0.1, 0.5, 2.0, 5.0, and 10 µM. Fluorescence signals from the homogenates were measured using an IVIS (PerkinElmer).

[2] = Fluorescence polarization of PA nanostructures; type: physicochemical; details: 10 mol% ICG conjugated PA (20 µM) with unconjugated PA, 200 µM total, PBS; mean ± SEM, 3 wells
Protocol: ICG (10 mol%) containing PA micelles were prepared by mixing ICG‐conjugated PAs with unconjugated or MMAE‐conjugated PAs to achieve a final concentration of 20 µM ICG‐conjugated PAs and 200 µM of total PAs. Aliquots of 100 µL were added to a 96‐well plate (3 wells for each PA). Fluorescence polarization measurements were performed using a microplate reader (TECAN Spark 20 M). The corrected parallel intensity (I par) and perpendicular intensity (Iper) were used to calculate the fluorescence anisotropy (r) using the following equation: r = […].

[3] = TEM imaging of PA nanostructures; type: physicochemical; details: ICG conjugated PA, 200 µM in ultrapure water, negative stain
Protocol: For TEM imaging, PAs conjugated with ICG, Cy5 or MMAE were dissolved in ultrapure water at a concentration of 200 µM. Carbonfilm 200 copper mesh TEM grids were glow‐discharged first. Then, PA solutions (15 µL) were placed on the grids, incubated for 10 min before blotting, and air‐dried. 15 µL of ultrapure water was applied to wash the grid for 3 min. After incubation, the water was removed by blotting from the edge of the grid. For negative staining of the samples, a 0.4% uranyl acetate solution was prepared in ultrapure water and filtered using a 0.1 µm syringe filter. 15 µL of filtered uranyl acetate solution was applied to the grid and incubated for 5 min. Finally, TEM grids were blotted to remove excess stain and dried at room temperature. TEM imaging was performed using a Tecnai or Talos microscope (FEI).

[4] = test system: LPs (HDL, LDL, VLDL) and albumin in pooled human plasma; design: AUC of all FPLC peaks, lower than SA‐E: unit not given beside the values
4T1 tumor [5] = experiment: Tumor accumulation, live IVIS imaging; type: in vivo, mouse; details: 50 nmol IV
Protocol: For tumor accumulation studies in subcutaneous (HCT‐116, A375, TRAMP‐C2, MC38, LLC1, RG2, PDX cell lines, wild type or SR‐B1 ‐/‐ TRAMP‐C2, and wild type or LDL‐R ‐/‐ HeLa), intradermal (A375), or fat pad (4T1 and MCF‐7) tumors, cells were implanted as described above. When the tumors reached a size around ≈0.3–1 cm, mice were injected intravenously with 100 µL of ICG conjugated PAs (in PBS, 0.5 mM) or free ICG (in PBS, 0.5 mM). After probe injections, mice were imaged using the IVIS Spectrum (PerkinElmer) with excitation and emission wavelengths of 745 and 820 nm, respectively, at the specified time points. Living Image (PerkinElmer) software was used for all analyses. For MMTV mice experiments, mice were injected intravenously weekly with SA‐E (100 µL PBS, 0.5 mM) between 71 and 85 days of age and imaged 2 days later in the IVIS. […] SA‐E was injected intravenously (100 µL PBS, 0.5 mM), 2 days later the intestinal tissue was harvested, washed, and analyzed in the IVIS for ICG.

[6] = test system: 4T1 mouse breast cancer cells; experiment: Cellular uptake of Cy5 labeled PAs; type: cell-based
Protocol: To compare the uptake of SA‐E and SA‐K, 1 × 10^5 4T1 cells were grown to near confluency (1–2 days) in 96 well plates with black walls and flat glass bottom. 100% Cy5 conjugated PAs (20 or 10 µM) or 10% Cy5 conjugated PA micelles (10 µM Cy5‐PAs mixed with 90 µM maleimide blocked labeled PAs) were preincubated in 10% FBS containing RPMI for 30 min at 37 °C, wells were aspirated, and 100 µL of media containing PAs were added. The plate was incubated for 30 min for the experiments with 100% Cy5 conjugated PAs. Media were aspirated, wells were washed 3x with 150 µL sterile PBS, and then 100 µL RPMI containing 10% FBS was added to each well. The plate was incubated for 1 h at 37 °C. For 10% and 100% Cy5 micelle uptake comparison, plate was incubated for 2 h at 37 °C with PAs. Then, media containing PAs were aspirated and washed with PBS, as above. Cell nuclei were stained with Hoechst (1:5000 dilution in PBS) for 5 min and then removed. 100 µL of phenol red free RPMI containing 10% FBS was added to each well. […] The microscope incubator was preheated for 30 min to reach 35 °C prior to imaging.
To study the uptake of SA‐E or SA‐K micelles (10% or 100% Cy5 micelles) or No‐SA over time, 4T1 cells were grown to near confluency in a 96 well plate as described above. Cy5 conjugated 100% Cy5 conjugated PAs (20 µM), 10% Cy5 conjugated PAs (10 µM Cy5), or No‐SA (20 µM) or were preincubated in 10% FBS containing RPMI for 30 min at 37 °C. Cell nuclei were stained with Hoechst stain as above. Cell membranes were stained (CellBrite 488, 1:1000 in 10% FBS containing RPMI) for 30 min at 37 °C. Wells were aspirated, and 100 µL of PAs were added to the wells for ≈1 min. Wells were washed with sterile PBS (3x, 150 µL), and Confocal images were taken at different time points (up to 2 h) after PA or No‐SA addition as described above using a 60x objective.

[7] = Blood circulation in mice; type: in vivo, mouse
Protocol: For blood circulation experiments, Balb/c mice were injected with 100 µL of ICG conjugated PAs or No‐SA, or free ICG (0.5 mM). Then, blood was drawn via the saphenous vein or retro‐orbitally at different time points (immediately after injection to 1 day). […] Blood from wild type mice was collected to prepare calibration curves for each probe. To each 18 µL aliquot of blood, 2 µL of probe stock solution (0.5 mM) was added and incubated at 37 °C for 1 h. The spiked samples were then serially diluted in blood between 50 and 0.1 µM. For fluorescence measurement, 2 µL of each diluted sample was further diluted into 98 µL of PBS, and ICG fluorescence was measured using a TECAN plate reader.

4T1 tumor [8] = experiment: Antitumor effect, 4T1 orthotopic mouse model
Protocol: All experiments were approved by the Oregon Health and Science University (OHSU) Institutional Animal Care and Use Committee (IACUC) (TR01_IP00000674) and conformed to the guidelines set by the United States Animal Welfare Act and the National Institutes of Health. Mice were aged between 3 and 8 months and 20–30 g in weight and were housed in specific pathogen free cages. Human, mouse, or rat cells were injected into nude (The Jackson Laboratory, 002019), NSG mice (The Jackson Laboratory, 005557), Balb/c mice (The Jackson Laboratory, 000651), or C57Bl/6J mice (The Jackson Laboratory, 000664), as specified below. Cells were injected in 100 µL sterile DMEM at a concentration of 0.5–1×10^7 cells mL^−1, unless otherwise specified. For tumor accumulation and biodistribution studies, A375 cells were injected intradermally into the left ears of NSG mice (The Jackson Laboratory, 005557). MCF7 cells were injected into the mammary fat pad of NSG mice. HCT‐116, RG2, and HeLa (wild type or LDL‐R knockout) cells were subcutaneously injected into the left or both flanks of NSG mice. 4T1 cells were injected into the mammary fat pad of Balb/c mice. LLC1, MC38, and TRAMP‐C2 (wild type or SR‐B1 knockout) were injected into C57Bl/6J mice. Patient‐derived xenografts were generated by injecting the patient‐derived cancer cells subcutaneously into the left flank of NSG mice. ApoA1 and LDL‐R knockout mice were purchased from the Jackson Laboratory (002055 and 002207, respectively). MC38 cells were subcutaneously injected into both flanks of these mice. Apc^min and MMTV‐PyMT mice were purchased from the Jackson Laboratory (002020 and 002374). For antitumor activity studies, 4T1 cells were injected into the mammary fat pad of Balb/c mice. HCT‐116 and RG2 cells were subcutaneously injected into the left flanks of nude mice. For antitumor activity studies, HCT‐116 cells were injected in a 1:1 mixture of DMEM and Matrigel (Life Science 354263).
Mice were injected with 4T1, RG2, or HCT‐116 cells as described above. Mice were then treated intravenously with the free MMAE (0.1 or 0.3 mg kg^−1), SA‐E‐MMAE (0.3, 0.6, 0.8, or 1 mg kg^−1) or PBS (10 mM, pH 7.4). 5 doses were given every 2–3 days over 11 days. […] Tumor size and mouse weight were monitored 2–3 times per week until a humane endpoint (tumor size ≈2 cm or >20% body weight loss) or the study endpoint (18, 25, or 120 days for 4T1, RG2, and HCT‐116 studies, respectively). Tumor size was measured in two directions with a caliper rounded to the nearest tenth of a mm. Volume was calculated as a basic sphere of 4/3πr^3.

- fluorescence in liver homogenates, SA‐E versus SA‐K (disassembly) [1]: almost identical fluorescence intensity
- fluorescence anisotropy of ICG in micelles [2]: 0.299 ± 0.008
- diameter of rod‐shaped micelles (TEM) [3]: ≈ 10 nm
- length of rod‐shaped micelles (TEM) [3]: several hundred
- AUC of all FPLC peaks, lower than SA‐E [4]: ≈ 4.5
- maximum TBR, lower than that of SA‐E (4T1 tumor [5]; 4T1 tumor‐bearing mice): approximately two‐fold
- maximum tumor signal, lower than maximum of SA‐E (4T1 tumor [5]; 4T1 tumor‐bearing mice): ≈ 6 fold
- total tumor accumulation (AUC of tumor signal), lower than SA‐E (4T1 tumor [5]; 4T1 tumor‐bearing mice): ≈ 2.7 fold
- time of maximum tumor fluorescence (4T1 tumor [5]; 4T1 tumor‐bearing mice, ICG conjugated): 4 days
Compound: CCCCCCCCCCCCCCCC(=O)NCC(=O)NCC(=O)NCC(=O)N[C@@H](Cc1c[nH]cn1)C(=O)N[C@@H](C)C(=O)N[C@@H](C)C(=O)N[C@@H](CC(N)=O)C(=O)NCC(=O)N[C@@H](CCCCN)C(=O)N[C@@H](CCCCN)C(=O)N[C@@H](CS)C(=O)N[C@@H](CCCCN)C(=O)O [SA‐K] (Palmitoyl-GGGHAANGKKCK-OH)
- uptake relative to SA‐E ([6]; Cy5 conjugated PAs, 10% FBS RPMI, 30 min incubation then 1 h, confocal): approximately three‐fold

- TBR (4T1 tumor [5]; all time points): around 1
- injected dose still in circulation ([7]; wild type (Balb/c) mice, ICG conjugated or free ICG 50 nmol IV, 6 h post injection, blood fluorescence with calibration curve): not detectable
- blood concentration, share of injected dose ([7]; wild type mice, 50 nmol IV, in 30 min): below 1%
Compound: CC1(C)C(/C=C/C=C/C=C/C=C2\N(CCCCS(=O)(=O)O)c3ccc4ccccc4c3C2(C)C)=[N+](CCCCS(=O)(=O)[O-])c2ccc3ccccc3c21 [free ICG, indocyanine green]

Compound: CC[C@H](C)[C@@H]([C@@H](CC(=O)N1CCC[C@H]1[C@H](OC)[C@@H](C)C(=O)N[C@H](C)[C@@H](O)c1ccccc1)OC)N(C)C(=O)[C@@H](NC(=O)[C@@H](NC)C(C)C)C(C)C [free MMAE, Monomethyl auristatin E] (H-[NMeV]V[Dil][Dolaproine]-X1)
- tolerability (4T1 tumor [8]; 0.1 mg kg^−1 IV, 5 doses, n = 3): tolerated
- tolerability (4T1 tumor [8]; 0.3 mg kg^−1 IV, stopped after the third injection, n = 5): high toxicity with rapid weight loss
- effect on tumor growth (4T1 tumor [8]; 0.1 or 0.3 mg kg^−1 IV): slight reduction in tumor growth

- TBR compared to SA‐E (4T1 tumor [5]; 4T1 tumor‐bearing mice): significantly lower TBR
- clearance from the tumor (4T1 tumor [5]; ICG conjugated, 4T1): mostly cleared in 2 days
Compound: GGGHAANGEECE [No‐SA]
- membrane binding and internalization ([6]; Cy5‐conjugated, 20 µM, ≈1 min exposure, imaging up to 2 h): no significant membrane binding or internalization
